Patent publication US9453062B2, “Glucose dependent insulinotropic polypeptide analogs, pharmaceutical compositions and use thereof” (Beijing Hanmi Pharmaceutical Co., Ltd., priority 2011, dated 2016)
Where two headings read alike, the source gives them in different places. Where a SMILES comes first, the peptide text is derived from it. Where no end group is shown, it is not given here. [ ]: non-standard residue; d: D form. The star is where a group is joined. Biotin = O=C1N[C@H]2[C@H](CS[C@H]2CCCCC(=O)*)N1; Palmitoyl = CCCCCCCCCCCCCCCC(=O)*; Nle = CCCC[C@H](N)C(=O)O; Aib = CC(C)(N)C(=O)O

Tests used:
hGLP-1R = biological target: T1, hGLP-1R (Homo sapiens, UniProt P43220); assay: hGLP-1R-mediated cAMP induction assay in CHO cell line; format: cell-based; conditions: for GLP-1R Relative Potency / GLP-1 Receptor Relative Potency: against native GLP-1;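 on all read-outs here: CHO cells expressing human GLP-1R, treated 30 min at 37 °C, intracellular cAMP measured by competitive fluorescent immunoassay and converted via a cAMP standard curve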
T1 construct: expressed in transfected cells; host or cells: CHO

hGIPR = biological target: T2, hGIPR (Homo sapiens, UniProt P48546); assay: hGIPR-mediated cAMP induction assay in CHO cell line; format: cell-based; conditions: for GIPR Relative Potency / GIP Receptor Relative Potency: against native GIP
T2 construct: expressed in transfected cells; host or cells: CHO
T2 sequence (P48546 22-466): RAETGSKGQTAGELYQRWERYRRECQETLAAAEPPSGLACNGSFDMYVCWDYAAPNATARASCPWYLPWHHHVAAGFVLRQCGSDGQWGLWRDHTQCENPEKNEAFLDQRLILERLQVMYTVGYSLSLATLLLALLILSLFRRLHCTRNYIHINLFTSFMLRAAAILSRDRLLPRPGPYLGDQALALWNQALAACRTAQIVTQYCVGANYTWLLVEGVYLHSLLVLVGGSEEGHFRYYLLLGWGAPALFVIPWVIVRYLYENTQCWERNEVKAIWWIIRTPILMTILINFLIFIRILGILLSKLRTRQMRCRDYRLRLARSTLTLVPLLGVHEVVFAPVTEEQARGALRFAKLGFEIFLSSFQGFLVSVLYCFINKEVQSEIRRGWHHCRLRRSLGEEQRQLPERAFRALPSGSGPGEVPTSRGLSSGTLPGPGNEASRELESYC

[1] = Table 1, CHO/hGLP-1R cells, read-out: GLP-1R EC50
[2] = Table 1, CHO/hGIPR cells, read-out: GIPR EC50

T1 sequence (P43220 24-463): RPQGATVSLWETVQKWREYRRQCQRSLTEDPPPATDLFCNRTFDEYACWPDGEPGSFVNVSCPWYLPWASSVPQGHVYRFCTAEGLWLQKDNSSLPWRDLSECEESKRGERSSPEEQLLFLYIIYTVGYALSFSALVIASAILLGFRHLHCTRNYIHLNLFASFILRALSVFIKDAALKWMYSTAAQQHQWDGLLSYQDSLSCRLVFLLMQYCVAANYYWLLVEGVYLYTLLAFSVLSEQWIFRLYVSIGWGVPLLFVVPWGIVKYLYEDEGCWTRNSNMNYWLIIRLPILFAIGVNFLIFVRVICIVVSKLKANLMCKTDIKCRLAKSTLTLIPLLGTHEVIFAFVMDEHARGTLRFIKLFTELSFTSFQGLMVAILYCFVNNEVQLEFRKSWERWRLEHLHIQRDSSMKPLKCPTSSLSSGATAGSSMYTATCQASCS

Row | Compound | EC50 (hGLP-1R; [1]) | GLP-1R Relative Potency (hGLP-1R; Table 1) | GLP-1 Receptor Relative Potency (hGLP-1R; Table 3) | EC50 (hGIPR; [2]) | GIPR Relative Potency (hGIPR; Table 1) | GIP Receptor Relative Potency (hGIPR; Table 3) | EC50 (hGLP-1R; Table 3, CHO hGLP1R cells) | EC50 (hGIPR; Table 3, CHO hGIPR cells) | GLP-1R activation (GLP-1 activity) against native GLP-1 (hGLP-1R) | GIPR activation (GIP activity) against native GIP (hGIPR; CHO/hGIPR cell assay)
1 | CC[C@H](C)[C@H](NC(=O)[C@H](CO)NC(=O)[C@H](Cc1ccc(O)cc1)NC(=O)[C@H](CC(=O)O)NC(=O)[C@H](CO)NC(=O)[C@@H](NC(=O)[C@H](Cc1ccccc1)NC(=O)[C@@H](NC(=O)CNC(=O)[C@H](CCC(=O)O)NC(=O)C(C)(C)NC(=O)[C@@H](N)Cc1ccc(O)cc1)[C@@H](C)O)[C@@H](C)O)C(=O)N[C@@H](Cc1ccc(O)cc1)C(=O)N[C@@H](CCSC)C(=O)N[C@@H](CCC(=O)O)C(=O)N[C@@H](CCCCN)C(=O)N[C@@H](CCC(=O)O)C(=O)N[C@@H](C)C(=O)N[C@H](C(=O)N[C@@H](CCCNC(=N)N)C(=O)N[C@@H](CC(C)C)C(=O)N[C@@H](Cc1ccccc1)C(=O)N[C@H](C(=O)N[C@@H](CCC(=O)O)C(=O)N[C@@H](Cc1c[nH]c2ccccc12)C(=O)N[C@@H](CC(C)C)C(=O)N[C@@H](CCCCN)C(=O)N[C@@H](CC(N)=O)C(=O)NCC(N)=O)[C@@H](C)CC)C(C)C [Compounds 024] (H-Y[Aib]EGTFTSDYSIYMEKEAVRLFIEWLKNG-NH2; N-terminus assumed) | 0.309 nM | 354% | 354 | 0.1 nM | 500% | 500 |  |  |  | 
2 | CC[C@H](C)[C@H](NC(=O)[C@H](Cc1ccccc1)NC(=O)[C@H](CCC(=O)O)NC(=O)[C@H](CCCCN)NC(=O)[C@H](C)NC(=O)[C@H](C)NC(=O)[C@H](CCC(N)=O)NC(=O)[C@H](CCCCN)NC(=O)[C@H](CCC(=O)O)NC(=O)[C@H](CCSC)NC(=O)[C@H](Cc1ccc(O)cc1)NC(=O)[C@@H](NC(=O)[C@H](CO)NC(=O)[C@H](Cc1ccc(O)cc1)NC(=O)[C@H](CC(=O)O)NC(=O)[C@H](CO)NC(=O)[C@@H](NC(=O)[C@H](Cc1ccccc1)NC(=O)[C@@H](NC(=O)CNC(=O)[C@H](CCC(=O)O)NC(=O)C(C)(C)NC(=O)[C@@H](N)Cc1ccc(O)cc1)[C@@H](C)O)[C@@H](C)O)[C@@H](C)CC)C(=O)N[C@@H](C)C(=O)N[C@@H](Cc1c[nH]c2ccccc12)C(=O)N[C@@H](CC(C)C)C(=O)N[C@H](C(=O)N[C@@H](CCCCN)C(=O)NCC(N)=O)C(C)C [Compounds 025] (H-Y[Aib]EGTFTSDYSIYMEKQAAKEFIAWLVKG-NH2; N-terminus assumed) | 0.837 nM | 131% | 131 | 1.5 nM | 33.3% | 33.3 |  |  |  | 
3 | CC[C@H](C)[C@H](NC(=O)[C@H](Cc1ccccc1)NC(=O)[C@H](CC(C)C)NC(=O)[C@H](CCCCN)NC(=O)[C@H](C)NC(=O)[C@H](C)NC(=O)[C@H](CCC(N)=O)NC(=O)[C@H](CCCCN)NC(=O)[C@H](CCC(=O)O)NC(=O)[C@H](CCSC)NC(=O)[C@H](Cc1ccc(O)cc1)NC(=O)[C@@H](NC(=O)[C@H](CO)NC(=O)[C@H](Cc1ccc(O)cc1)NC(=O)[C@H](CC(=O)O)NC(=O)[C@H](CO)NC(=O)[C@@H](NC(=O)[C@H](Cc1ccccc1)NC(=O)[C@@H](NC(=O)CNC(=O)[C@H](CCC(=O)O)NC(=O)C(C)(C)NC(=O)[C@@H](N)Cc1ccc(O)cc1)[C@@H](C)O)[C@@H](C)O)[C@@H](C)CC)C(=O)N[C@@H](CCC(=O)O)C(=O)N[C@@H](Cc1c[nH]c2ccccc12)C(=O)N[C@@H](CC(C)C)C(=O)N[C@@H](CCCCN)C(=O)N[C@@H](CC(N)=O)C(=O)NCC(N)=O [Compounds 026] (H-Y[Aib]EGTFTSDYSIYMEKQAAKLFIEWLKNG-NH2) | 0.38 nM | 288% | 288 | 4.2 nM | 11.9% | 11.9 |  |  |  | 
4 | H-Y[Aib]EGTFTSDYSIYMEKEAVREFIAWLVKGGPSSGAPPPSKKKKKK(Biotin)-NH2 [Compound 080] |  |  | 98.5 |  |  | 67 | 1.11 nM | 0.1 nM |  | 
5 | Tyr-Aib-Glu-Gly-Thr-Phe-Thr-Ser-Asp-Tyr-Ser-Ile-Tyr-Nle-Glu-Lys-Ile-His-Gln-Gln-Asp-Phe-Val-Asn-Trp-Leu-Val-Arg-Gln(NH2) (Y[Aib]EGTFTSDYSIY[Nle]EKIHQQDFVNWLVRQ-NH2) [Analog 021] |  |  |  |  |  |  |  |  | around 5% | 21%
6 | Y[Aib]EGTFTSDYSIYMEKEAVREFIAWLVKGGPSSGAPPPSKKKKKK(Palmitoyl)-NH2 [Compound 078] |  |  | 754 |  |  | 352.6 | 0.145 nM | 0.019 nM |  | 
7 | Y[Aib]EGTFTSDYSIYMEKEAVREFIAWLVKGGPSSGAPPPSKKKKKK-NH2 [Compound 071] |  |  | 25.1 |  |  | 22.1 | 3.8 nM | 0.77 nM |  | 
